These results are taken from patent US6331555A, “Treatment of platelet derived growth factor related disorders such as cancers” (priority 1999, dated 2001).

Entries after “also recorded” stand apart in the source; their conditions may differ.

Usually IC50 stands for the point on the concentration scale where inhibition reaches its midpoint.

The target of one assay is PDGFR (Homo sapiens, UniProt P09619). Put plainly: Receptor tyrosine kinase inhibition, PDGFR. In kind it is cell-based. On the set-up: U1242 (PDGF-β receptor); host or cells: U1242 glioma cells (ELISA). The following applies: read-out: PDGFR IC50. In a few lines:
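Serum-starved cells treated with test compound for 2 hr at 37° C, then receptor phosphotyrosine measured by ELISA with anti-phosphotyrosine antibody and goat anti-rabbit IgG. Western blots used 7 min ligand stimulation at room temperature, vanadate-containing lysis and anti-phosphotyrosine immunodetection with ECL.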

The test system of assay [1] is C6 cells. Put plainly: Intracerebral C6 tumor, athymic rats, survival. The following applies: IC C6, athymic rats. The class given is in vivo, rat. Here is the method: FIG. 5. In two separate experiments, C6 cells (5×10^4 cells in 20 μL [Expt #1] or 5 μL [Expt #2]) were implanted into the cerebrum of athymic rats. […] V=vehicle control. n=7 to 8 animals per group. * P=0.0002; ** P=0.0003 compared to vehicle control.
For the rat IC model, rats (Wistar, Sprague Dawley, Fisher 344, or athymic R/Nu; approximately 200 g) were anesthetized by an IP injection of 100 mg/kg Ketaset (ketamine hydrochloride; Aveco, Fort Dodge, Iowa) and 5 mg/kg Rompun (xylazine, 2% solution; Bayer, Germany). After onset of anesthesia, the scalp was shaved and the animal was oriented in a stereotaxic apparatus (Stoelting, Wood Dale, Ill.). The skin at the incision site was cleaned 3 times with alternating swabs of 70% ethanol and 10% Povidone-Iodine. A median 1.0-1.5 cm incision was made in the scalp using a sterile surgical blade. The skin was detached slightly and pulled to the sides to expose the sutures on the skull surface. A dental drill (Stoelting, Wood Dale, Ill.) was used to make a small (1-2 mm diameter) burrhole in the skull approximately 1 mm anterior and 2 mm lateral to the bregma. The cell suspension was drawn into a 50 μL Hamilton syringe fitted with a 23 or 25 ga standard bevel needle. […]

For assay [2], the system named is epidermal growth factor (EGF) receptor. The following applies: listed as leflunomide; cited from earlier work.
In assay [3] the test system is 7TD1 (B-cell hybridoma) cells. Briefly: Survival, IP 7TD1 B-cell hybridoma in C57BL/6 mice. In kind it is in vivo, mouse. As for the experimental part:
(§1) Cell lines were grown in the appropriate media as described in Appendix 1. Cells were harvested and washed in sterile PBS or medium without FBS, resuspended to a suitable concentration, and injected into the IP cavity of […] of the appropriate strain. Prior to implantation of 7TD1 cells, C57BL/6 mice were primed by IP injection of 0.5 mL Pristane. SKOV3T cells were implanted into athymic mice without Pristane priming. Mice were observed daily for the occurrence of ascites formation. Individual animals were sacrificed when they presented with a weight gain of 40%, or when the IP tumor burden began to cause undue stress and pain to the animal.
All animals in the control group died by day 9, while 3 of 8 animals in the A10-treated group survived past day 80.

Another assay concerns SKOV3T cells. Briefly: Survival, IP SKOV3T xenograft in BALB/c nu/nu mice. In kind it is in vivo, human. The note with it: 15 mg/kg/day IP in DMSO. As for the experimental part: as §1
In one experiment, SKOV3T cells (2×10^6 cells) were implanted into the IP cavity of BALB/c, nu/nu mice.

The subject of a further assay is SKOV-3T cells. Briefly: Soft agar assay (SAA). In kind it is cell-based. The following applies: Homo sapiens; PDGF-R expression ++. Here is the method:
(§2) After a 2 to 3 week incubation at 37° C., colonies larger than 50 μm were quantified using an Omnicon 3800 Tumor Colony counter.
(§3) PDGF-R expression was measured qualitatively using a western blot.

In assay [4] the test system is C6 cells. Briefly: Soft agar assay (SAA). The following applies: Rattus norvegicus, PDGF-R expression ++. In kind it is cell-based. As for the experimental part: as §2, §3
For the next assay, the system named is SKOV-3 cells. Put plainly: Soft agar assay (SAA). In kind it is cell-based. The note with it: Homo sapiens, SK-OV-3; PDGF-R expression -. As for the experimental part:
as §2, §3

Another assay has as its system SF767T cells. Put plainly: Soft agar assay (SAA). In kind it is cell-based. The note with it: Homo sapiens; PDGF-R expression ++. Here is the method: as §2, §3

PDGFR, sequence (P09619 33-1106): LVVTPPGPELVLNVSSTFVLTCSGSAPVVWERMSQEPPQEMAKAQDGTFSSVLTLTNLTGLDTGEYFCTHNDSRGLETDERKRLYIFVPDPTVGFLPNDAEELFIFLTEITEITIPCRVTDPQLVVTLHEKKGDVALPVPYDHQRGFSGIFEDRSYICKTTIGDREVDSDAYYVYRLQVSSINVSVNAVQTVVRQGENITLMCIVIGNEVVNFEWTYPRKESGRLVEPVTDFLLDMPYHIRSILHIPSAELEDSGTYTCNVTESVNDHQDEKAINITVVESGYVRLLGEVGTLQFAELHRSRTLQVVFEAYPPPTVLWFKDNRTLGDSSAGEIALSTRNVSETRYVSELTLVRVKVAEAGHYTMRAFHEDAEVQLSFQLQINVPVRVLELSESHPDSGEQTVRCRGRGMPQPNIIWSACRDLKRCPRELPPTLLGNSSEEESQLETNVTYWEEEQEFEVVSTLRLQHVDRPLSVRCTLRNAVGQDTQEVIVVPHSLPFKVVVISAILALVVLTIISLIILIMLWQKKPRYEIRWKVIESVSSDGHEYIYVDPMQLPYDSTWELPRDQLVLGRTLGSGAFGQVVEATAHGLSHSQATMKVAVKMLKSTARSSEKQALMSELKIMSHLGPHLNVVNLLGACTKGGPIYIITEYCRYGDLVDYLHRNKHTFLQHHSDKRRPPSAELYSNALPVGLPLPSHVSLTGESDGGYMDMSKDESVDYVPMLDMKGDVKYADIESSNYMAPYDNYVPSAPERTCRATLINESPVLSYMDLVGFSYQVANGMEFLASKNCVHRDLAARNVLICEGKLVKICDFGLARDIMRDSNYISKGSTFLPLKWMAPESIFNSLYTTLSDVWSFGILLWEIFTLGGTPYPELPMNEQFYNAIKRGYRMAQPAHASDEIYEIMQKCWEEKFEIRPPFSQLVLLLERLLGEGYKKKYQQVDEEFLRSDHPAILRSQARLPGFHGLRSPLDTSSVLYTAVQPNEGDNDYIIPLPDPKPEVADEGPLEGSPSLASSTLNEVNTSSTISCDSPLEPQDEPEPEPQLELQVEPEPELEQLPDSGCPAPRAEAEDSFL

In the case of `c1ccc(-c2cnc3cc4ccccc4cc3n2)cc1` [Compound G22], at PDGFR, the IC50 is 14 µM.

As for `Cc1oncc1C(=O)Nc1ccc(C(F)(F)F)cc1` [Compound A10, 5-methylisoxazole-4 carboxylic acid-(4-trifluromethyl)-anilide], the survival entry is “slight but significant positive effect on the survival” in the assay on C6 cells [1], “significantly increase the survival” in assay [3] (15 mg/kg/day IP in DMSO) and “significantly increase the survival” in the assay on SKOV3T cells. Also, the “autophosphorylation of the EGF receptor” value in assay [2] is reported as “dose dependently, inhibited; also recorded: inhibit EGF induced EGF receptor autophosphorylation”. Also, the animals surviving in assay [3] (15 mg/kg/day IP in DMSO 30 days, past day 80) is on record as 3 of 8. The compound also displayed an animals alive in the assay on SKOV3T cells (after 32 days) of 40%. Moreover, the animals died entry with SKOV3T cells (by 28 days) is on record as “one of A10 treated animals died by 28 days”. The IC50 in the assay on SKOV-3T cells is 0.3 µM; in the assay on C6 cells [4], 0.4 µM; with SKOV-3 cells, 6.3 µM; in the assay with SF767T cells, 0.5 to 2 µM.

For `N#CC(=Cc1c[nH]c2ccccc12)c1[nH]nc(N)c1C#N` [Compound D14], the half-inhibitory concentration (IC50) on PDGFR worked out at 47 µM.
